The structures appear in SMILES notation. Values joined by “and” are separate entries in the source; they are usually repeats but may differ in a detail not shown here. Equal entries are not always repeated. Where two headings read alike, the source gives them in different places.

In general, IC50 refers to the concentration that gives 50% inhibition.

One experiment deals with MCF7 cells. Put plainly: MTT cell viability assay, MCF7. The conditions noted are these: Homo sapiens. In kind it is cell-based, human. As to the method: (§1) Cellular viability was determined by the MTT (methylthiazolyldiphenyl-tetrazolium bromide) assay. Briefly, cells were exposed to the indicated concentrations of crude extracts or compounds 1–4 for five doubling times and then incubated for 3 h at 37 °C with MTT. Formazan crystals were then dissolved in DMSO and optical density measured at 570 nm in a microplate reader. The half-maximal inhibitory concentration (IC50) was determined. Values given for crude extracts are averages of at least two experiments done in duplicate. IC50 values calculated for the four isolated compounds and the commercially available 4-hydroxy-tamoxifen (Sigma-Aldrich) are averages of at least three experiments done in duplicate.
Background: Formazan colour is commonly taken as a measure of viable cells.

A further experiment deals with 3T3-F442A cells. The experiment can be described thus: MTT cell viability assay, 3T3-F442A pre-adipocytes. It is filed as cell-based, murine. To be noted: Mus musculus. As to the method: as §1
The subject of another experiment is HCT116. The experiment can be described thus: MTT cell viability assay, HCT116. In kind it is cell-based. To be noted: Homo sapiens, HCT-116; colon. On the procedure: as §1
The subject of another experiment is HCT116 oxa. The experiment can be described thus: MTT cell viability assay, HCT116 oxa. In kind it is cell-based. To be noted: Homo sapiens, HCT-116; colon; oxaliplatin resistant. As to the method: as §1
In the next experiment the test system is RKO. Put plainly: MTT cell viability assay, RKO. To be noted: Homo sapiens, colon. In kind it is cell-based. As to the method:
as §1

For experiment [1], the target named is T1, NADPH-dependent thioredoxin reductase (Trr1) (Saccharomyces cerevisiae, UniProt P29509).
T1 construct: made in house
T1 sequence (P29509 whole entry): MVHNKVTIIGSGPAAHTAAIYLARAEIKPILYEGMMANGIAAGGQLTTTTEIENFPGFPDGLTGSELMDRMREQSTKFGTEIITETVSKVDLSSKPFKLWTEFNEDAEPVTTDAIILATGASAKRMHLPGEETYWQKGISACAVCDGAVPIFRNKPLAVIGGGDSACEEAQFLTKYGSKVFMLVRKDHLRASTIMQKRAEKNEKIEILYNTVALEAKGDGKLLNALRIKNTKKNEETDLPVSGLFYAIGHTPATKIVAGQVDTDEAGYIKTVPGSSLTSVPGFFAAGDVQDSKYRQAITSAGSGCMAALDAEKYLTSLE
The experiment can be described thus: In vitro reduction by NADPH thioredoxin reductase alone (NADPH consumption). In kind it is biochemical. To be noted: yeast NTR (Trr1) alone, versus ACN control. On the procedure:
Thioredoxin 1 (Trx1) and NADPH-dependent thioredoxin reductase (Trr1) from Saccharomyces cerevisiae were cloned and produced as described previously. Thioredoxin activity was measured spectrophotometrically (Uvikon XS; Secomam) in 1 mL cuvette by following NADPH consumption at 340 nm over 2 min. The reaction was performed in 100 µM NADPH, 246 nM of Trr1 in 30 mM Tris-HCl buffer (pH 7.9) and in the presence or not of 65 nM of Trx1. The reaction was initiated by adding 10 µL of 50 mM of 3 in acetonitrile or 10 µL of acetonitrile (ACN, Control experiment). For each condition, NADPH consumption experiments were performed in triplicate and results were represented as the mean ± SD. The significance of the results was evaluated by Student’s t-test.

Experiment [2] deals with cytoplasmic GAPDH from Arabidopsis thaliana (AtGAPDH) (Arabidopsis thaliana, UniProt P25858). The experiment can be described thus: Covalent adduct formation with GAPDH by MALDI-TOF mass spectrometry. In kind it is binding. To be noted: data not shown. From the text:
Compound 3 is a member of the epidithiodioxopiperazines, a class of natural products characterized by a sulfur-bridged dioxopiperazine that is believed to play an important role in their biological activity. […] The role of the sulfur-bridged dioxopiperazine in the activity of epidithiodioxopiperazines has been attributed to two main mechanisms: (1) mixed disulfide formation with proteins and (2) production of reactive oxygen species (ROS) upon the formation of the disulfide bond after reduction by a cellular reductant. […] To test whether 3 might act through these two processes, we first assessed its propensity to form in vitro covalent adducts with the glycolytic glyceraldehyde-3-phosphate dehydrogenase enzyme (GAPDH). GAPDH is a widely used model protein to study molecular mechanism of thiol-based post-translational modifications as its catalytic cysteine is prone to multiple reversible and irreversible oxidation states. […] Trxs are small ubiquitous thiol/disulfide oxidoreductases with multiple recognized roles in cellular processes and human diseases including cancers. However, since mammal NTR is a selenoprotein that is not easily produced recombinantly, we used here the thioredoxin system from the eukaryotic yeast Saccharomyces cerevisiae (Figure 6). […]

A further experiment concerns MCF7-Sh-WISP2 cells. Put plainly: γ-H2AX foci immunofluorescence. It is filed as cell-based, human. The conditions noted are these: 1 µM.

Chain of cytoplasmic GAPDH from Arabidopsis thaliana (AtGAPDH) (P25858 whole entry): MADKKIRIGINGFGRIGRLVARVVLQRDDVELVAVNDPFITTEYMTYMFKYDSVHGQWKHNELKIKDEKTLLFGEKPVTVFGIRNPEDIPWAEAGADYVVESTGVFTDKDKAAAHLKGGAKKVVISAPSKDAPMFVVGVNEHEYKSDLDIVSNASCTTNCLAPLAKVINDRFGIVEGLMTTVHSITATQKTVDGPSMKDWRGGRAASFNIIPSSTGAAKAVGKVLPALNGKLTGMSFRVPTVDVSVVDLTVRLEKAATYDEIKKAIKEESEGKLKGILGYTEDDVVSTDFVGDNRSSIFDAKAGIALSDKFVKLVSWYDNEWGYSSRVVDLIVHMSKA

`CN1C(=O)[C@@]2(Cc3ccccc3)SS[C@]1(CO)C(=O)N2C` [Compound 3, (3R, 6R) Hyalodendrin]: the concentration for half-maximal inhibition (IC50) in the experiment on MCF7 cells (MCF7, read-out: IC50 MCF7, breast, epithelial) is 216 ± 6 nM; in the experiment on MCF7 cells (MCF7, read-out: IC50 MCF7, pure compounds, MTT), 0.07 µg/mL and 220 nM; in the experiment with 3T3-F442A cells (read-out: IC50 3T3-F442A), 0.099 µg/mL and 300 nM; with 3T3-F442A cells (read-out: IC50 3T3F442A), 305 ± 4.2 nM; with HCT116 it was 48 ± 9.3 nM; in the experiment on HCT116 oxa it was 25.7 ± 4.2 nM. Besides, in the experiment on RKO, half-maximal inhibition (IC50) required 74.3 ± 1.9 nM. Moreover, the NADPH consumption increase result in experiment [1] was “ca. three”. Moreover, the “mixed disulfide formation with catalytic cysteine of AtGAPDH (mass shift)” value in experiment [2] is reported as “not able to form a mixed disulfide”. Further, the γ-H2AX signal entry in the experiment on MCF7-Sh-WISP2 cells (24 and 48 h) is given as “punctuated labeling in their nucleus”; in the experiment with MCF7-Sh-WISP2 cells (3 h), “no γ-H2AX signal could be detected”.
